Patent US6448450B1, “1-(3,5-dimethoxyphenyl)-2-(4-hydroxyphenyl)-ethylene for diabetes treatment” (Calyx Therapeutics, Inc., priority 1998, dated 2002)

What was measured:
[1] = system: STZ induced diabetic rats; set-up: blood glucose BEFORE / blood glucose AFTER: unit not given here; settings: Pter. 20 mg/kg, metformin 30 mg/kg, cited from earlier work; for blood glucose AFTER: after treatment; for blood glucose BEFORE: before treatment
[2] = system: Streptozotocin (STZ) induced diabetic rats; assay: Glucose tolerance test in STZ induced diabetic rats; type: in vivo; settings: 20 mg/kg/bw in propyleneglycol, glucose load 2 g/kg/bw, monitored 0-180 minutes, FIG. 1
Experimental: (§1) Streptozotocin (STZ) induced diabetic rats were made by injecting STZ (40 mg/kg/bw) intravenously. Following verification of blood glucose levels after 72 hours, diabetic rats showing fasting blood glucose levels above 200 mg/dl were divided into two groups. The diphenylethylene was administered to one group in a dose of 20 mg/kg/bw in propyleneglycol. The control group received only propyleneglycol. Soon after the administration of the compound, glucose tolerance testing was conducted by a glucose load of 2 g/kg/bw and blood glucose levels were monitored at zero, 30, 60, 120 and 180 minutes by milking the tail of the rats.

[3] = system: STZ induced diabetic rats; assay: Effect on streptozotocin-induced diabetic rats, comparison with metformin; type: in vivo; settings: 20 mg/kg vs metformin 30 mg/kg
Experimental: as §1
The same test was conducted on STZ induced diabetic rats comparing the diphenylethylene with the commercial product metformin. The diphenylethylene was administered at a dose of 20 mg/kg and metformin was administered at the dosage of 30 mg/kg.

[4] = system: spontaneously diabetic (db/db) mice; assay: Blood glucose in spontaneously diabetic (db/db) mice; type: in vivo; settings: 20 mg/kg/bw/ip in propyleneglycol, within 24 hours
Experimental: Six spontaneously diabetic (db/db) mice were divided into two groups of three each. One test group receives the diphenylethylene (20 mg/kg/bw/ip) in propyleneglycol. The control group received an equal volume of propyleneglycol. Soon after the administration of the test materials, blood glucose levels were monitored at 1 hour (see FIG. 2A) and 24 hours (see FIG. 2B) after treatment. The diphenylethylene reduced the blood glucose level by over 50 percent within 24 hours, thus establishing its antihyperglycemic effect.

[5] = cited from earlier work

Structure (SMILES) | % CHANGE of blood glucose [1] | blood glucose AFTER [1] | blood glucose BEFORE [1] | blood glucose levels versus control group after glucose load [2] | glucose levels compared with the commercial product (metformin) [3] | reduction of blood glucose level [4] | water solubility [5]
CN(C)C(=N)N=C(N)N [Metformin, metformin, reference compound] | −48% | 188 ± 36 | 358 ± 24 | – | – | – | –
COc1cc(/C=C/c2ccc(O)cc2)cc(OC)c1 [diphenylethylene, 1-(3,5-dimethoxyphenyl)-2-(4-hydroxyphenyl)ethylene] | −42% | 219 ± 48 | 377 ± 37 | stayed consistently below the blood glucose levels in the control group | equivalent to those obtained by the commercial product | over 50% | –
COc1cc(/C=C/c2ccc(O)cc2)cc(OC)c1 [pterostilbene, 3,5-dimethoxy-4′-hydroxy-trans-stilbene] | – | – | – | – | – | – | water insoluble
